On the set-up of data set [1]: method as in Horti et al., 2010. The settings on record: rat brain, 2 min post injection; ref Horti et al., 2010; cited from earlier work.
A short description of data set [2]: biodistribution studies in male NMRI mice. Type of data set: in vivo, mouse. The settings on record: NMRI mice; for % ID bladder + urine / % ID blood / SUV blood / % ID brain / SUV brain / % ID heart / SUV heart / % ID intestines / % ID kidneys / SUV kidneys / % ID liver / SUV liver / % ID lungs / SUV lungs / % ID pancreas / SUV pancreas / % ID spleen / SUV spleen / % ID stomach: i.v. On the procedure: The tissue distribution and kinetics of [^11C]MA2 and [^18F]MA3 were studied in male NMRI mice at 2, 10, 30, and 60 min post injection of the tracer. The results of the biodistribution studies are presented in Table 1 ([^11C]MA2) and Table 2 ([^18F]MA3) as percentage of injected dose (% ID) and standard uptake value (SUV).
The biodistribution of [^11C]MA2 and [^18F]MA3 was studied in normal male Naval Medical Research Institute (NMRI) mice. A solution of HPLC-purified [^11C]MA2 or [^18F]MA3 was diluted with saline to obtain an ethanol concentration < 10%. Mice were anesthetized with isoflurane (2% in oxygen) and injected intravenously (i.v.) with [^11C]MA2 (~ 9.25 MBq) or [^18F]MA3 (~ 0.92 MBq) via a lateral tail vein. The mice were sacrificed by decapitation at 2, and 60 min post injection (for [^11C]MA2, n = 4) and at 2, 10, 30, or 60 min post injection (for [^18F]MA3, n = 3 or 4 per time point) and dissected. Blood, organs, and other body parts were collected in tared tubes and the radioactivity in each tube was measured using an automated gamma counter. The tubes containing selected organs and blood were weighed. For calculation of total radioactivity in blood, blood mass was assumed to be 7% of the body mass (Fritzberg et al., [1982]). Quantitative data are expressed as mean ± standard deviation (SD). Means were compared using an unpaired two-tailed student t-test. Values were considered statistically significant for P ≤ 0.05.

Data set [3] is described as follows: plasma radiometabolite analysis. It is filed as in vivo. The settings on record: mouse plasma, average of 2 assays. On the procedure:
The fraction of radiometabolites in mouse plasma at 2 and 30 min after injection of the tracer was determined by RP-HPLC analysis to investigate the in vivo stability of [^11C]MA2. […] At 2 min post injection of [^11C]MA2, 88% (n = 2) of the recovered radioactivity was assigned to the intact parent tracer. The percentage of intact [^11C]MA2 decreased to 34% at 30 min post injection of the tracer. All detected radiometabolites were more polar than the intact tracer.
After i.v. administration of [^11C]MA2 (~ 9.25 MBq) via a lateral tail vein to anesthetized NMRI mice (isoflurane 2% in oxygen), the mice were decapitated at 2 or 30 min post injection (n = 2 per time point). […] The isolated plasma was spiked with authentic non-radioactive MA2 (15 μL of 1 mg/mL solution in CH3CN) and analyzed by RP-HPLC on a Chromolith RP C18 column (3 mm x 100 mm; Merck) eluted with gradient mixtures of CH3CN (A) and 0.05 M NaOAc pH 5.5 (B) (0–5 min: Isocratic 100% B, flow rate of 0.5 mL/min; 5–10 min: Linear gradient 100 B to 10% B, flow rate of 1 mL/min; 10–13 min: Isocratic 10% B, flow rate of 1 mL/min; 13–13.1 min: Linear gradient 10 B to 100% B, flow rate of 0.5 mL/min; 13.1–15 min: Isocratic 100% B, flow rate of 0.5 mL/min). […] The radioactivity in all fractions was measured using an automated gamma counter. […]

Where “and” joins values, the source holds several entries; their conditions need not be identical. Identical values can stand only once.

For `Cc1sc(=NC(=O)C2C(C)(C)C2(C)C)n(CCO[11CH3])c1C` [[^11C]A-836339], in data set [1], the SUV in brain was ~ 0.5.
As to `[11CH3]Oc1ccc2ncc(NCCCc3nc(-c4ccc(F)cc4Cl)no3)cc2c1` [[^11C]MA2], in data set [2], the “accumulation in the spleen” value is listed as “no accumulation”. Further, in data set [2] (2 min post injection), the “% ID bladder + urine” value came to 0.2 ± 0.1 % ID; the “% ID blood” value came out at 5.8 ± 0.4 % ID; the SUV blood was found to be 0.8 ± 0.1; the “% ID brain” value was 1.6 % ID and 1.6 ± 0.5 % ID. In data set [2] (2 min post injection), the SUV brain is 1.8 ± 0.2, the “% ID heart” value amounted to 1.4 ± 0.4 % ID, the SUV heart is given as 3.3 ± 0.6 and the “% ID intestines” value stood at 9.7 ± 0.4 % ID. Moreover, in data set [2] (2 min post injection), the “% ID kidneys” value stood at 8.3 ± 1.6 % ID, the SUV kidneys is on record as 5.1 ± 0.7, the “% ID liver” value is 28.3 ± 2.9 % ID and the SUV liver was found to be 6.0 ± 0.1. Moreover, in data set [2] (2 min post injection), the “% ID lungs” value turned out to be 1.4 ± 0.3 % ID, the SUV lungs was 2.3 ± 0.4, the “% ID pancreas” value came to 1.6 ± 0.8 % ID and the SUV pancreas was 2.2 ± 1.0. Further, in data set [2] (2 min post injection), the “% ID spleen” value turned out to be 0.5 ± 0.2 % ID, the SUV spleen is reported as 2.0 ± 0.2 and the “% ID stomach” value is given as 1.3 ± 0.3 % ID. For the same compound, in data set [2] (60 min post injection), the “% ID bladder + urine” value is 4.5 % ID and 4.5 ± 1.0 % ID; the “% ID blood” value was 0.7 ± 0.1 % ID; the SUV blood is reported as 0.1 ± 0.0; the “% ID brain” value is 0.1 ± 0.0 % ID. In data set [2] (60 min post injection), the SUV brain stood at 0.1 ± 0.0; the “% ID heart” value was found to be 0.1 ± 0.0 % ID; the SUV heart is 0.1 ± 0.0; the “% ID intestines” value was 63.8 % ID and 63.8 ± 2.9 % ID. Besides, in data set [2] (60 min post injection), the “% ID kidneys” value was determined as 1.0 ± 0.3 % ID; the SUV kidneys came out at 0.6 ± 0.1; the “% ID liver” value amounted to 9.1 ± 3.0 % ID; the SUV liver was 2.0 and 2.0 ± 0.5. For the same compound, in data set [2] (60 min post injection), the “% ID lungs” value is 0.1 ± 0.0 % ID, the SUV lungs worked out at 0.2 ± 0.0, the “% ID pancreas” value is on record as 0.2 ± 0.1 % ID and the SUV pancreas amounted to 0.3 ± 0.0. Further, in data set [2] (60 min post injection), the “% ID spleen” value turned out to be 0.03 ± 0.01 % ID, the SUV spleen is 0.2 ± 0.0 and the “% ID stomach” value was found to be 4.2 ± 3.9 % ID. Besides, the “blood % ID 2 min/60 min ratio” value in data set [2] (clearance from blood) was determined as 8.6. Also, the “brain % ID 2 min/60 min ratio” value in data set [2] (wash-out from brain) amounted to 18.4. For the same compound, the “% of intact tracer in blood plasma” value in data set [3] (2 min post injection) is given as 88%. For the same compound, the “% of intact tracer in blood plasma” value in data set [3] (30 min post injection) amounted to 34%.

The values above are taken from PMC5031696, “Synthesis, Biodistribution and In vitro Evaluation of Brain Permeable High Affinity Type 2 Cannabinoid Receptor Agonists [^11C]MA2 and [^18F]MA3” (Frontiers in Neuroscience, 2016).
